Reference: the supplement of paper PMC10307832

Tests used:
Experiment in all cases: relative viability (nuclei count vs DMSO), 5 days (fraction); higher = more cells survive
NCI-H650 = tested on: NCI-H650
Method in brief: (§1)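 Lung cancer cell lines in 1536-well plates got either a single drug or a fixed anchor-drug dose together with five library-drug doses (not always all listed) in √10 steps, by pin tool, on the day after seeding. Nuclei were counted after 5 days, and relative viability is the treated-to-vehicle ratio of nuclei counts. Values are medians of duplicate plates.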

NCI-H23 = tested on: NCI-H23
Method in brief: as §1

NCI-H358 = tested on: NCI-H358
Method in brief: as §1

COR-L23 = tested on: COR-L23
Method in brief: as §1

NCI-H2342 = tested on: NCI-H2342
Method in brief: as §1

NCI-H441 = tested on: NCI-H441
Method in brief: as §1

A-427 = tested on: A-427
Method in brief: as §1

NCI-H1975 = tested on: NCI-H1975
Method in brief: as §1

SK-MES-1 = tested on: SK-MES-1
Method in brief: as §1

BEN = tested on: BEN
Method in brief: as §1

NCI-H838 = tested on: NCI-H838
Method in brief: as §1

HCC-15 = tested on: HCC-15
Method in brief: as §1

NCI-H1437 = tested on: NCI-H1437
Method in brief: as §1

HCC-827 = tested on: HCC-827
Method in brief: as §1

NCI-H596 = tested on: NCI-H596
Method in brief: as §1

EKVX = tested on: EKVX
Method in brief: as §1

201T = tested on: 201T
Method in brief: as §1

HARA = tested on: HARA
Method in brief: as §1

SW 900 = tested on: SW 900
Method in brief: as §1

NCI-H1650 = tested on: NCI-H1650
Method in brief: as §1

## CC(=O)O[C@@]12CO[C@@H]1C[C@H](O)[C@@]1(C)C(=O)[C@H](O)C3=C(C)[C@@H](OC(=O)[C@H](O)[C@@H](NC(=O)OC(C)(C)C)c4ccccc4)C[C@@](O)([C@@H](OC(=O)c4ccccc4)[C@H]21)C3(C)C [Docetaxel] + COc1cc2c(Oc3ccc(NC(=O)C4(C(=O)Nc5ccc(F)cc5)CC4)cc3F)ccnc2cc1OCCCN1CCOCC1 [Foretinib] (partner 0.25 µM)
NCI-H650; first compound 0.0002 µM
  relative viability: 0.958
NCI-H650; first compound 0.000632 µM
  relative viability: 0.921
NCI-H650; first compound 0.002 µM
  relative viability: 0.299
NCI-H650; first compound 0.006325 µM
  relative viability: 0.277
NCI-H650; first compound 0.02 µM
  relative viability: 0.218
NCI-H23; first compound 0.0002 µM
  relative viability: 0.964
NCI-H23; first compound 0.000632 µM
  relative viability: 0.859
NCI-H23; first compound 0.002 µM
  relative viability: 0.705
NCI-H23; first compound 0.006325 µM
  relative viability: 0.188
NCI-H23; first compound 0.02 µM
  relative viability: 0.147
NCI-H358; first compound 0.0002 µM
  relative viability: 0.66
NCI-H358; first compound 0.000632 µM
  relative viability: 0.217
NCI-H358; first compound 0.006325 µM
  relative viability: 0.122
NCI-H358; first compound 0.02 µM
  relative viability: 0.0708
COR-L23; first compound 0.0002 µM
  relative viability: 0.891
COR-L23; first compound 0.000632 µM
  relative viability: 0.896
COR-L23; first compound 0.002 µM
  relative viability: 0.561
COR-L23; first compound 0.006325 µM
  relative viability: 0.173
COR-L23; first compound 0.02 µM
  relative viability: 0.116
NCI-H2342; first compound 0.0002 µM
  relative viability: 1.17
NCI-H2342; first compound 0.000632 µM
  relative viability: 0.948
NCI-H2342; first compound 0.002 µM
  relative viability: 0.638
NCI-H2342; first compound 0.006325 µM
  relative viability: 0.661
NCI-H2342; first compound 0.02 µM
  relative viability: 0.502
NCI-H441; first compound 0.0002 µM
  relative viability: 1.12
NCI-H441; first compound 0.000632 µM
  relative viability: 0.725
NCI-H441; first compound 0.002 µM
  relative viability: 0.538
NCI-H441; first compound 0.006325 µM
  relative viability: 0.87
A-427; first compound 0.0002 µM
  relative viability: 1
A-427; first compound 0.000632 µM
  relative viability: 1.04
A-427; first compound 0.002 µM
  relative viability: 0.686
A-427; first compound 0.006325 µM
  relative viability: 0.261
A-427; first compound 0.02 µM
  relative viability: 0.176
NCI-H1975; first compound 0.0002 µM
  relative viability: 0.907
NCI-H1975; first compound 0.000632 µM
  relative viability: 0.586
NCI-H1975; first compound 0.002 µM
  relative viability: 0.353
NCI-H1975; first compound 0.02 µM
  relative viability: 0.105
SK-MES-1; first compound 0.0002 µM
  relative viability: 0.84
SK-MES-1; first compound 0.000632 µM
  relative viability: 0.923
SK-MES-1; first compound 0.002 µM
  relative viability: 0.508
SK-MES-1; first compound 0.006325 µM
  relative viability: 0.368
SK-MES-1; first compound 0.02 µM
  relative viability: 0.168
BEN; first compound 0.0002 µM
  relative viability: 0.625
BEN; first compound 0.000632 µM
  relative viability: 0.926
BEN; first compound 0.002 µM
  relative viability: 0.606
BEN; first compound 0.006325 µM
  relative viability: 0.285
BEN; first compound 0.02 µM
  relative viability: 0.197
NCI-H838; first compound 0.0002 µM
  relative viability: 0.98
NCI-H838; first compound 0.000632 µM
  relative viability: 1.03
NCI-H838; first compound 0.002 µM
  relative viability: 0.262
NCI-H838; first compound 0.006325 µM
  relative viability: 0.283
NCI-H838; first compound 0.02 µM
  relative viability: 0.162
HCC-15; first compound 0.0002 µM
  relative viability: 0.906
HCC-15; first compound 0.000632 µM
  relative viability: 0.472
HCC-15; first compound 0.002 µM
  relative viability: 0.233
HCC-15; first compound 0.006325 µM
  relative viability: 0.27
HCC-15; first compound 0.02 µM
  relative viability: 0.162
NCI-H1437; first compound 0.0002 µM
  relative viability: 1.12
NCI-H1437; first compound 0.000632 µM
  relative viability: 1.21
NCI-H1437; first compound 0.002 µM
  relative viability: 0.351
NCI-H1437; first compound 0.006325 µM
  relative viability: 0.273
NCI-H1437; first compound 0.02 µM
  relative viability: 0.188
HCC-827; first compound 0.0002 µM
  relative viability: 1.03
HCC-827; first compound 0.000632 µM
  relative viability: 1
HCC-827; first compound 0.002 µM
  relative viability: 0.771
HCC-827; first compound 0.006325 µM
  relative viability: 0.362
HCC-827; first compound 0.02 µM
  relative viability: 0.291
NCI-H596; first compound 0.0002 µM
  relative viability: 0.901
NCI-H596; first compound 0.000632 µM
  relative viability: 0.51
NCI-H596; first compound 0.002 µM
  relative viability: 0.419
NCI-H596; first compound 0.006325 µM
  relative viability: 0.365
NCI-H596; first compound 0.02 µM
  relative viability: 0.217
EKVX; first compound 0.0002 µM
  relative viability: 1.07
EKVX; first compound 0.000632 µM
  relative viability: 0.887
EKVX; first compound 0.002 µM
  relative viability: 0.411
EKVX; first compound 0.006325 µM
  relative viability: 0.234
EKVX; first compound 0.02 µM
  relative viability: 0.13
201T; first compound 0.0002 µM
  relative viability: 1.15
201T; first compound 0.000632 µM
  relative viability: 0.712
201T; first compound 0.002 µM
  relative viability: 0.473
201T; first compound 0.006325 µM
  relative viability: 0.29
201T; first compound 0.02 µM
  relative viability: 0.213
HARA; first compound 0.0002 µM
  relative viability: 0.709
HARA; first compound 0.000632 µM
  relative viability: 0.128
HARA; first compound 0.002 µM
  relative viability: 0.146
HARA; first compound 0.006325 µM
  relative viability: 0.0748
HARA; first compound 0.02 µM
  relative viability: 0.0559
SW 900; first compound 0.0002 µM
  relative viability: 0.816
SW 900; first compound 0.000632 µM
  relative viability: 0.407
SW 900; first compound 0.002 µM
  relative viability: 0.249
SW 900; first compound 0.006325 µM
  relative viability: 0.247
SW 900; first compound 0.02 µM
  relative viability: 0.175
NCI-H1650; first compound 0.0002 µM
  relative viability: 1.07
NCI-H1650; first compound 0.000632 µM
  relative viability: 0.598
NCI-H1650; first compound 0.006325 µM
  relative viability: 0.213
NCI-H1650; first compound 0.02 µM
  relative viability: 0.204
